Test results: paper PMC6456166, “Mitochondrial type II NADH dehydrogenase of Plasmodium falciparum (PfNDH2) is dispensable in the asexual blood stages” (PLoS ONE, 2019)

Target: T1, cytochrome bc1 complex (cytochrome b, cyt b) (Plasmodium falciparum, UniProt Q02768)
T1 construct: gene MT-CYB; native bc1 complex in mitochondria-enriched preparations from D10 WT and ΔPfNDH2 parasites; with other subunits of the bc1 complex (Complex III)
T1 sequence (Q02768 1-376): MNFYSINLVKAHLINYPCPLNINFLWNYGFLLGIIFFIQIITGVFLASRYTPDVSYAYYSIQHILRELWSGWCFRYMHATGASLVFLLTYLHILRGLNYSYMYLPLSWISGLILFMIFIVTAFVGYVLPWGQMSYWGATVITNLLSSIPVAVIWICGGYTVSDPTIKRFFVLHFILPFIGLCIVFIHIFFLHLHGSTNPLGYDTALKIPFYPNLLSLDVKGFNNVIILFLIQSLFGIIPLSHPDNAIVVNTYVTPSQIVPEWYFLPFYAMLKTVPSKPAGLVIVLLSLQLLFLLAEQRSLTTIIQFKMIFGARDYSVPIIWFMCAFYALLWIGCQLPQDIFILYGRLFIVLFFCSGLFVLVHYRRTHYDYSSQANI
Test: ubiquinol-cytochrome c reductase assay in isolated parasite mitochondria ([…] nm), dose-dependent inhibition in WT and ΔPfNDH2
Assay type: cell-based

For `CCCCCCCCCCCCc1cc(=O)c2ccccc2n1O` [HDQ, 1-hydroxy-2-dodecyl-4(1H) quinolone], the “ubiquinol-cytochrome c reductase assay in isolated parasite mitochondria (550 nm)” value was “HDQ and CK-2-68 inhibited the ubiquinol-cytochrome c reductase activity in the mitochondria of ΔPfNDH2 and WT”.
